What was measured:
[1] = tested on: CA40_1MM (DNA, aptamer) ACGCTCCGGACTTGGGTGGGTGGGTTGGGGTACGGTGTGT; test: E-AB sensor, square-wave voltammetry; conditions: working buffer; apparent; surface-bound
[2] = tested on: CA40_2MM (DNA, aptamer) ACGCTCTGGACTTGGGTGGGTGGGTTGGGGTACGGTGTGT; test: E-AB sensor, square-wave voltammetry; conditions: working buffer; apparent; surface-bound
[3] = tested on: CA36 (DNA, aptamer) GCTCCGGACTTGGGTGGGTGGGTTGGGGTACGGTGC; test: E-AB sensor, square-wave voltammetry; conditions: working buffer; apparent; surface-bound
[4] = tested on: CA32 (DNA, aptamer) TCCGGACTTGGGTGGGTGGGTTGGGGTACGGT; test: E-AB sensor, square-wave voltammetry; conditions: working buffer; apparent; surface-bound
[5] = tested on: CA28 (DNA, aptamer) CGGACTTGGGTGGGTGGGTTGGGGTACG; test: E-AB sensor, square-wave voltammetry; conditions: working buffer; apparent; surface-bound; KD fixed in fit
[6] = tested on: CA16 (DNA, G4) GGGTGGGTGGGTTGGG; test: E-AB sensor, square-wave voltammetry; conditions: working buffer; apparent; surface-bound; KD fixed in fit
[7] = tested on: CA40 (DNA, aptamer) ACGCTCCGGACTTGGGTGGGTGGGTTGGGGTACGGTGCGT; test: fluorescence titration (intrinsic irinotecan fluorescence); conditions: working buffer; 1 µM irinotecan titrated with aptamer; excitation 370 nm
[8] = tested on: CA32 (DNA, aptamer) TCCGGACTTGGGTGGGTGGGTTGGGGTACGGT; test: E-AB sensor, kinetic differential measurement (10 and 120 Hz); conditions: buffer; apparent; co-deposited 1:1 with linear probe; surface-bound

binding [1]: yes
binding [2]: yes
binding [3]: yes
binding [4]: yes
binding [5]: yes
binding [6]: yes
KD [7]: 0.475 ± 0.01 µM
KD [8]: 16.0 ± 1.3 µM
SMILES: CCc1c2c(nc3ccc(OC(=O)N4CCC(N5CCCCC5)CC4)cc13)-c1cc3c(c(=O)n1C2)COC(=O)[C@]3(O)CC

Source: paper PMC6788505 (2019)
